Literature values, collected in patent US20100215736A1, “ORAL DOSAGE FORM PROVIDING FAST ADSORPTION OF DRUG” (NOVARTIS AG, priority 2007, published 2010).

Details: in vivo

tmax: 36 min
SMILES: CC(C)Cc1ccc(C(C)C(=O)[O-])cc1.O.O.[Na+] (stereo not shown) [ibuprofen sodium dihydrate salt]
